Measured values taken from article PMC10301603, “Potent and Selective Benzothiazole-Based Antimitotics with Improved Water Solubility: Design, Synthesis, and Evaluation as Novel Anticancer Agents” (Pharmaceutics, 2023).
Values after ≈ are worked out from the molar mass of the structure shown.

Assays:
HT-29 cells [1] = experiment: Cell growth inhibition assay (MTT); format: cell-based, human; details: Homo sapiens, HT-29, 72 h after drug exposure
Procedure: (§1) The cell lines were obtained from ATTC (Manassas, VA, USA). HeLa (human cervix epithelioid carcinoma), MCF7 (human breast adenocarcinoma), HepG2 (human hepatocellular carcinoma), U87 MG (human glioblastoma), T98G (human glioblastoma), GL261 (murine glioma), LNCaP (human prostate cancer), PC-3 (human prostate cancer), and HEK-293 (human embryonic kidney) were grown in Dulbecco’s modified Eagle’s medium (DMEM, Gibco, Waltham, MA, USA), supplemented with 10% (v/v) heat-inactivated fetal bovine serum (HIFBS, Sigma-Aldrich, St. Louis, MO, USA)), 2 mM L-glutamine, 100 μg/mL streptomycin, and 100 units/mL penicillin (Gibco, Waltham, MA, USA) at 37 °C in saturated humidity atmosphere containing 95% air and 5% CO2. Cell line HT-29 (human colon carcinoma) was grown in Roswell Park Memorial Institute (RPMI) 1640 medium (Gibco, Whaltman, MA, USA) supplemented with 10% HIFBS, 100 μg/mL streptomycin, and 100 units/mL penicillin (Gibco, Whaltman, MA, USA) at 37 °C in humidified 95% air and 5% CO2 atmosphere. MycoAlert kit (Lonza, Norwest, Australia) was used to routinely check the presence of mycoplasma, and only mycoplasma-free cells were employed in the experiments.
(§2) Cells were plated in 96-well plates (100 µL/well) at the following concentrations: 30,000 cells/mL (HepG2, U87 MG, T98G, C6, LNCaP, PC3, and HT-29 cells) or 15,000 cells/mL (HeLa and MCF-7 cells). Previous experiments were performed to choose the optimal cell concentration (70–80% confluence) and avoid the formation of cell aggregates. Cells were incubated in complete DMEM or RPMI 1640 medium (see above) at 37 °C and 5% CO2 atmosphere for 24 h to allow for cell attachment to the plate. Then, every compound was added (10 µL/well) to a final concentration of 10 µM. Non-treated cells were used as negative controls. The antiproliferative activity of compounds was measured 72 h after the treatments using the MTT reagent (3-[4,5-dimethylthiazol-2-yl]-2,5-diphenyltetrazolium bromide), (MTT Thiazolyl Blue Tetrazolium Bromide, Sigma-Aldrich, St. Louis, MO, USA) dissolved in PBS at 5 mg/mL. Compounds showing antiproliferative effects at 10 µM were selected to determine their IC50 value. For that purpose, compounds were used at different concentrations ranging from 10^−10 to 10^−2 M. Measurements were performed in triplicate, and each experiment was repeated three times. The IC50 value was determined for every compound using Origin software (OriginLab, Washington, USA). To study the sensitivity to MDR efflux pumps of compounds, the IC50 values were determined by following the same procedure but in the presence of verapamil (final concentration of 10 µM).

HeLa cells = experiment: Cell growth inhibition assay (MTT); format: cell-based, human; details: Homo sapiens, HeLa, 72 h after drug exposure
Procedure: as §1, §2

HepG2 cells = experiment: Cell growth inhibition assay (MTT); format: cell-based, human; details: Homo sapiens, HepG2, 72 h after drug exposure
Procedure: as §1, §2

LNCaP cells = experiment: Cell growth inhibition assay (MTT); format: cell-based, human; details: Homo sapiens, LNCaP, 72 h after drug exposure
Procedure: as §1, §2

MCF7 cells = experiment: Cell growth inhibition assay (MTT); format: cell-based, human; details: Homo sapiens, MCF7; MTT, 72 h after drug exposure
Procedure: as §1, §2

PC-3 cells = experiment: Cell growth inhibition assay (MTT); format: cell-based, human; details: Homo sapiens, PC-3, 72 h after drug exposure
Procedure: as §1, §2

T98G cells = experiment: Cell growth inhibition assay (MTT); format: cell-based, human; details: Homo sapiens, T98G, 72 h after drug exposure
Procedure: as §1, §2

U87MG cells = experiment: Cell growth inhibition assay (MTT); format: cell-based, human; details: Homo sapiens, U-87 MG; MTT, 72 h after drug exposure
Procedure: as §1, §2

GL261 cells = experiment: Cell growth inhibition assay (MTT); format: cell-based, murine; details: Mus musculus, GL261, 72 h after drug exposure
Procedure: as §1, §2

HEK-293 cells = experiment: Cell growth inhibition assay (MTT), non-tumorigenic cells; format: cell-based, human; details: Homo sapiens, HEK293, 72 h after drug exposure, non-tumorigenic cell line
Procedure: as §1, §2

bovine brain tubulin = experiment: Tubulin polymerization inhibition (turbidimetry); format: biochemical; details: for IC50: concentration inhibiting 50% of microtubular protein polymerization in vitro, read-out: TPI IC50; for Tubulin polymerization inhibition (in words): 10 µM; for % TPI: compounds tested at 10 µM, with respect to the negative control
Procedure: Microtubular protein was isolated from calf brain following the modified Shelanski method, based on temperature-dependent assembly/disassembly of tubulin [45]. The protein was stored at −80 °C, and its concentration was determined using the Bradford method before each use. Tubulin polymerization, which occurs when heating a buffered tubulin sample from 4 °C to 37 °C, is accompanied by an increase in the absorbance (at 450 nm) of the sample that was monitored by a Helios α spectrophotometer. […] Then, the temperature was adjusted to 4 °C, and the temperature being shifted to 37 °C allowed for the assembly process of tubulin. The turbidity caused by tubulin polymerization was measured by the increased absorbance at 450 nm. The increase in absorbance obtained for the control sample (without the ligand), which we considered to be 100% tubulin polymerization (0% inhibition), compared with the increase in absorbance determined for the sample containing ligands yielded the degree of tubulin polymerization inhibition (TPI), which is expressed as a percentage value. For the compounds displaying TPI values over 50% at 10 µM, the IC50 value for TPI was calculated. Measurements were performed in triplicate in two independent experiments using microtubular protein from different preparations.

[2] = Aqueous solubility, shake-flask method; format: physicochemical; details: pH 7.0 buffer, pH 7, aqueous buffer, thermodynamic from solid, shaking flask, buffered media at pH 7.0, mean of three
Procedure: The aqueous solubility of compounds was measured in a Helios Alfa Spectrophotometer. Calibration lines at the maximum wavelength of absorbance were determined for each compound. Then, following the shake-flask method, a suspension of 5 mg of each compound in 500 µL in pH 7.0 buffer was stirred for 72 h at room temperature. The mixture was then filtrated over a […] filter to remove the insoluble fraction. The concentration of the compound in the resulting saturated solution was determined via UV absorbance measurement and interpolation in the calibration line. The aqueous solubility values are given as the average of three independent measurements.

HT-29 cells [3] = experiment: Cell growth inhibition (MTT) in the presence of 10 µM verapamil (sensitivity to MDR efflux pumps); format: cell-based, human; details: 10 µM verapamil (P-gp/MDR1 inhibitor)
Procedure: as §2

Row | Structure (SMILES) | IC50 (HT-29 cells [1]) | IC50 (HeLa cells) | IC50 (HepG2 cells) | IC50 (LNCaP cells) | IC50 (MCF7 cells) | IC50 (PC-3 cells) | IC50 (T98G cells) | IC50 (U87MG cells) | IC50 (GL261 cells) | IC50 (HEK-293 cells) | IC50 (bovine brain tubulin) | solubility at 72 h [2] | IC50 (HT-29 cells [3]) | Tubulin polymerization inhibition (in words) (bovine brain tubulin) | % TPI (bovine brain tubulin)
1 | COc1ccc(S(=O)(=O)Nc2cccnc2Nc2ccc(O)cc2)cc1 [ABT-751, reference compound] | 0.213 µM | 0.388 µM | 0.327 µM | 0.325 µM | 0.18 µM | 0.422 µM | 0.421 µM | 0.375 µM | 0.309 µM | 1.23 µM | 4.4 µM | – | – | – | –
2 | COc1ccc2nc(NCc3[nH]cnc3C)sc2c1 [Compound 4, 6-methoxy-N-((4-methyl-1H-imidazol-5-yl)methyl)benzo[d]thiazol-2-amine] | > 10 µM | 9.33 µM | > 10 µM | > 10 µM | > 10 µM | > 10 µM | > 10 µM | > 10 µM | > 10 µM | > 10 µM | > 10 µM | 86 µg/mL (≈ 313 µM) | > 10 µM | not able to inhibit tubulin polymerization | 0%
3 | COc1ccc2nc(NCc3ccccc3)sc2c1 [Compound 5, N-benzyl-6-methoxybenzo[d]thiazol-2-amine] | > 10 µM | 4.36 µM | 5.78 µM | 5.97 µM | 6.31 µM | > 10 µM | > 10 µM | 8.31 µM | 7.25 µM | > 10 µM | > 10 µM | 5 µg/mL (≈ 18.5 µM) | > 10 µM | – | 0%
4 | COc1ccc2nc(NCc3ccc4ccccc4c3)sc2c1 [Compound 6, 6-methoxy-N-(naphthalen-2-ylmethyl)benzo[d]thiazol-2-amine] | > 10 µM | 3.71 µM | 4.51 µM | 4.32 µM | 4.23 µM | > 10 µM | > 10 µM | 6.54 µM | 6.25 µM | > 10 µM | > 10 µM | – | > 10 µM | not able to inhibit tubulin polymerization | 7%
5 | CCNC(=O)N(Cc1[nH]cnc1C)c1nc2ccc(OC)cc2s1 [Compound 10, 3-ethyl-1-(6-methoxybenzo[d]thiazol-2-yl)-1-((4-methyl-1H-imidazol-5-yl)methyl)-urea] | > 10 µM | > 10 µM | > 10 µM | > 10 µM | > 10 µM | > 10 µM | > 10 µM | > 10 µM | > 10 µM | > 10 µM | > 10 µM | 178 µg/mL (≈ 515 µM) | > 10 µM | not able to inhibit tubulin polymerization | 0%
6 | CCNC(=O)N(Cc1ccccc1)c1nc2ccc(OC)cc2s1 [Compound 11, 1-benzyl-3-ethyl-1-(6-methoxybenzo[d]thiazol-2-yl)urea] | > 10 µM | 2.71 µM | 2.45 µM | 2.37 µM | 2.04 µM | > 10 µM | > 10 µM | 2.91 µM | 2.93 µM | > 10 µM | > 10 µM | 16 µg/mL (≈ 46.9 µM) | > 10 µM | – | 6%
7 | CCNC(=O)N(Cc1ccc2ccccc2c1)c1nc2ccc(OC)cc2s1 [Compound 12, 3-ethyl-1-(6-methoxybenzo[d]thiazol-2-yl)-1-(naphthalen-2-ylmethyl)urea] | > 10 µM | > 10 µM | > 10 µM | > 10 µM | > 10 µM | > 10 µM | > 10 µM | > 10 µM | > 10 µM | > 10 µM | > 10 µM | < 9 µg/mL | > 10 µM | not able to inhibit tubulin polymerization | 0%
8 | COc1ccc2nc(N(C=O)Cc3[nH]cnc3C)sc2c1 [Compound 16, N-(6-methoxybenzo[d]thiazol-2-yl)-N-((4-methyl-1H-imidazol-5-yl)methyl)formamide] | > 10 µM | > 10 µM | > 10 µM | > 10 µM | > 10 µM | > 10 µM | > 10 µM | > 10 µM | > 10 µM | > 10 µM | > 10 µM | 165 µg/mL (≈ 546 µM) | > 10 µM | not able to inhibit tubulin polymerization | 0%
9 | COc1ccc2nc(N(C=O)Cc3ccccc3)sc2c1 [Compound 17, N-benzyl-N-(6-methoxybenzo[d]thiazol-2-yl)formamide] | > 10 µM | 3.4 µM | 5.55 µM | 4.01 µM | 5.02 µM | > 10 µM | > 10 µM | 5.27 µM | 6.41 µM | > 10 µM | > 10 µM | 12 µg/mL (≈ 40.2 µM) | > 10 µM | – | 4%
10 | CC(=O)O[C@@]12CO[C@@H]1C[C@H](O)[C@@]1(C)C(=O)[C@H](O)C3=C(C)[C@@H](OC(=O)[C@H](O)[C@@H](NC(=O)OC(C)(C)C)c4ccccc4)C[C@@](O)([C@@H](OC(=O)c4ccccc4)[C@H]21)C3(C)C [DTX, docetaxel, reference compound] | 0.307 µM | 0.051 µM | 0.055 µM | 0.01 µM | 0.013 µM | 0.02 µM | 0.059 µM | 0.022 µM | 0.035 µM | 1.55 µM | – | – | – | – | –
